The values that follow come from patent US7998460B2, “Prevention of deficits in neurogenesis with anti-inflammatory agents” (The Board of Trustees of the Leland Stanford Junior …, priority 2003, dated 2011).

The subject of one series is C57BI/6 mice. Briefly: Locomotor chambers and Morris water maze after LPS in mice. It counts as in vivo, mouse. The following applies: for distance swum to hidden platform in training, NSAID alone: first training session, no LPS; for probe trial performance, NSAID alone: no LPS challenge. On the procedure:
Behavioral testing. Locomotor activity was measured in 17×17 inch chambers lined with three 16-beam infrared arrays in photocell boxes (MED Associates, Inc., St. Albans, Vt.). The mice were placed into the chambers and their locomotor activity was recorded for 20 minutes 4 days after LPS was injected (on Day 4). A 50 msec scanning rate was used for measuring beams broken. Distance traveled was analyzed for estimates of locomotion based on the movement of a given distance and resting delay (movement in a given period) using Open Field Activity software (MED Associates, Inc., St. Albans, Vt.).
Hippocampus-dependent learning and memory was assessed in the standard Morris water maze task. All hippocampus-dependent training and testing was conducted in a black circular tank (170 cm diameter×43 cm height) filled water made opaque using white non-toxic Tempra paint (Rich Art Color Co. Inc, Northvale, Calif.; training and testing). A platform (13 cm diameter×28.5 cm height) was hidden 1 cm below the water surface for platform shaping and training trials. Time and distance traveled in the pool was recorded using Videotrack Automated Behavioral Analysis System (Viewpoint Life Sciences Inc., Otterburn Park, Quebec).
Platform shaping began three days before platform training (Days 25-27). In the absence of extra-maze cues, mice were released from random points in the pool (filled with clearwater) near the platform and gently guided to the platform. Shaping trials continued until the mouse remained on the platform for 15 s over 3 consecutive trials on each of the three sessions.
[…] In the presence of extra-maze cues, the mice were released from the middle of the east, south, or west quadrant, facing the pool wall, and were given 120 s to find the platform hidden beneath opaque water in the center of the north quadrant. […] Sessions of 6 training trials (inter-trial interval of approximately 30 min) were conducted daily until all the mice located the platform in an average of 15 s or less within a session. […] Pathlength and latency were analyzed as measures of learning, swim speed was analyzed as a measure of sensorimotor ability and % time spent in outer annulus was analyzed as a measure of anxiety.
Probe Trial Testing was conducted at 1 week after mice reached criterion in the platform training phase of the experiment. The room setup was identical for platform training and probe trials, with the exception that the platform was removed from the pool during probe trials. The mice were given a single trial in which they were released from the center of the pool and then after 3 minutes were removed from the location that held the platform during training trials. Percent time and distance spent in each quadrant were analyzed as measures of memory, swim speed and total distance swum were analyzed as measures of sensorimotor ability and % time and distance spent in the outer annulus were analyzed as measures of anxiety. After the last probe trial, we ran four daily sessions of reversal trials (4 trials per session) in which mice were given 120 s to locate the platform hidden beneath opaque water in the south quadrant to better interpret whether probe trial performance was indicative of memory or perseveration. […] A visible platform session (2 trials) was administered after the final reversal trial to further test sensorimotor ability. Reversal and visible platform trial performance was scored identically to platform training performance.

Series [1] relates to adult hippocampus-derived neural precursor cells. Put plainly: In vitro neuronal differentiation (doublecortin) of hippocampal neural progenitor cells, 60 hours. In kind it is cell-based, rat. The following applies: for effect on in vitro neurogenesis (Dcx-expressing cells relative to control): 60 hours differentiation. The source says:
Neuroinflammation could inhibit neurogenesis by a variety of mechanisms, including stimulation of the HPA axis with subsequent elevation of gluccocorticoids, alterations in the relationships between progenitor cells and cells of the neuro-vasculature, or direct effects of activated microglia on the precursor cells. To determine the extent to which microglial activation might directly affect neural stem/progenitor cells, microglia were stimulated in vitro with LPS. LPS is a potent activator of microglia and up-regulates the elaboration of pro-inflammatory cytokines, including IL-6 and TNF-α. LPS-stimulated or resting microglia were then co-cultured with normal neural stem cells from the hippocampus under conditions that typically stimulate the differentiation of 30 to 40% of the progenitor cells into immature Dcx-expressing neurons (normalized to a value of 1 in FIG. 2A, control). Neurogenesis in the presence of microglia was assessed as the increase or decrease in Dcx-expressing cells relative to control. Co-culture with activated, but not resting, microglia decreased in vitro neurogenesis to approximately half of control levels (FIG. 2A). LPS added directly to precursor cells had no effect on neurogenesis.
To determine if this effect was due to soluble factors or due to cell-cell contact, hippocampal precursor cells were differentiated in the presence of media pre-conditioned by resting or activated microglia.
Activated microglia produce the potent pro-inflammatory cytokines interleukin-1β (IL-1β), tumor necrosis factor-α (TNF-α), interferon-γ (INF-γ) and interleukin-6 (IL-6). Progenitor cells were allowed to differentiate in the presence of each cytokine and the relative expression of Dcx was scored after 60 hours. […] Addition of neutralizing anti-IL-6 antibody to CM from activated microglia was able to fully restore in vitro neurogenesis (FIG. 2A). This implicated IL-6 as a key inhibitor of neurogenesis in microglial CM. […] In contrast to neurogenesis, gliogenesis was unaffected by IL-6 exposure as indicated by the lack of change in the number of cells expressing the astrocyte (glial fibrillary acidic protein, GFAP) or early oligodendrocyte (NG2) markers relative to control cultures (FIG. 2E). The hippocampal precursors used in this study do express the IL-6 receptor, as confirmed by RT-PCR (FIG. 5).
Progenitor Cell Culture Adult hippocampus-derived neural precursor cells were isolated from adult rat hippocampus and cultured as previously described. Briefly, adult female Fisher-344 rats were deeply anesthetized with sodium pentobarbital and were dissected immediately. Hippocampi were enzymatically dissociated with papain (2.5 U/ml; Worthington, Freehold, N.J.)-dispase II (1 U/ml; Boehringer Mannheim, Indianapolis, Ind.)-DNase I (250 U/ml, Worthington) solution. Digested tissue was then washed with DMEM-10% fetal calf serum (FCS) and subsequently mixed with PBS-equilibrated Percoll solution to a final concentration of 35% Percoll. The Percoll solution was made by mixing nine parts of Percoll (Amersham Pharmacia Biotech, Uppsala, Sweden) with one part of 10× PBS. The cell suspension was then fractionated by centrifugation for 10 min at 1000×gravity. Floating myelin and tissue debris were discarded and the cell pellet re-suspended in 65% Percoll solution and fractionated again by centrifugation for 10 min at 1000×g. The floating neural precursors were collected, washed free of Percoll, and plated onto poly-L-ornithine/laminin-coated dishes in DMEM/F12 (1:1) containing 10% FCS medium for 24 hrs; then medium was replaced with serum-free growth medium consisting of DMEM/F12 (1:1) supplemented with N2 supplement (Life Technologies, Gaithersburg, Md.) and 20 ng/ml of human recombinant FGF-2 (Peprotech, Rocky Hill, N.J.). Cell lines were labeled via infection with replication deficient GFP-expressing recombinant retrovirus LZRS-CAMut4GFP. […]

A further series relates to neural progenitor cells. Put plainly: Differentiation of mouse neural progenitor cells with recombinant MCP-1, 5 days. The following applies: rmMCP-1 up to 100 ug/ml. In kind it is cell-based. The method, then:
To determine if MCP-1 was acting directly on neural progenitor cells to mediate these effects, brains from wild type, MCP-1^−/−, or CCR2^−/− mice were enzymatically dissociated and neurosphere cultures established in growth medium (Neurobasal-A, B27 supplement, 10 ng/ml EGF, 20 ng/ml FGF-2). Neurospheres were dissociated at passage 2-3 and plated as monolayers on laminin coated dishes and then induced to differentiate by replacing growth medium with differentiation medium (Neurobasal-A, B27, 1 ng/ml FGF-2, 100 nM all-trans retinoic acid, 10 ng/ml BDNF, 10 ng/ml NT3). Increasing concentrations of recombinant mouse MCP-1 (rmMCP-1) were added to the medium and cells were allowed to differentiate for 5 days. Cells were then fixed and stained for Dcx (FIG. 11C-C). Within 5 days of differentiation, a proportion of cells became positive for Dcx. […] Similarly, addition of rmMCP-1 up to a final concentration of 100 ug/ml had no effect on the number of neurons produced.
Progenitor Cell Culture and Differentiation Whole brains from PO mouse pups were enzymatically digested with a mixture of papain, neutral protease, and DNAse. Neurospheres were cultured on uncoated plates with medium containing Neurobasal A (Gibco), L-glutamine, PSF, B-27 without vitamin A, 40 ng/ml FGF-2, and 40 ng/ml EGF. Cultures were passaged in parallel when reaching confluence and total viable cell counts were made using a hemocytometer to score trypan blue-excluding cells at each passage. Cells were induced to differentiate by plating dissociated cells into laminin-coated multi-chamber tissue culture slides (Nunc) in differentiation media, Neurobasal A, B-27 without vitamin A, 1% fetal bovine serum, 100 nM all trans-retinoic acid, 1 ng/ml FGF-2, 10 ng/ml BDNF, and 10 ng/ml NT3. […] Total nuclei per sample site was scored using DAPI, neurons were scored on the basis of Dcx immunoreactivity. No significant differences were detected in either growth or differentiation between wild type and MCP-1^−/− or CCR2^−/− mice

For `Cc1ccc(-c2cc(C(F)(F)F)nn2-c2ccc(S(N)(=O)=O)cc2)cc1` [Celebrex, celecoxib], in the series on C57BI/6 mice, the “distance swum to hidden platform in training, NSAID alone” value is listed as “slight but significant increased distance swum” and the “probe trial performance, NSAID alone” value was “performed as badly as LPS-treated mice”. In the series with C57BI/6 mice (listed as celebrex), the “distance swum to hidden platform in training, NSAID alone” value is “slight but significant initial increase in swimming distance” and the “probe trial performance, NSAID alone” value is on record as “alone significantly impaired memory”.
For TNF-α, in series [1] (recombinant IL-6 50 ng/ml or TNF-α 20 ng/ml, 60 hours), the “decrease of in vitro neurogenesis (relative expression of Dcx)” value is given as “approximately 50%”.
Take “rmMCP-1: recombinant mouse monocyte chemoattractant protein-1 (Peprotech)”: the “extent of neuronal arborization” value in the series with neural progenitor cells is reported as “Neither was the extent of arborization influenced”. Further, the “number of Dcx-positive neurons produced” value with neural progenitor cells is “no effect”; in the series on neural progenitor cells (listed as MCP-1), “does not directly affect”.

B1: IL-1β: recombinant rat interleukin 1β (protein, UniProt Q63264 117-268, looked up)
Interleukin-1 beta: VPIRQLHCRLRDEQQKCLVLSDPCELKALHLNGQNISQQVVFSMSFVQGETSNDKIPVALGLKGLNLYLSCVMKDGTPTLQLESVDPKQYPKKKMEKRFVFNKIEVKTKVEFESAQFPNWYISTSQAEHRPVFLGNSNGRDIVDFTMEPVSS
In the case of B1, the “effect on in vitro neurogenesis (Dcx-expressing cells relative to control)” value in series [1] is “not significant”.

B2: INF-γ: recombinant rat interferon γ (protein, UniProt P01581 23-156, looked up)
Interferon gamma: QGTLIESLESLKNYFNSSSMDAMEGKSLLLDIWRNWQKDGNTKILESQIISFYLRLFEVLKDNQAISNNISVIESHLITNFFSNSKAKKDAFMSIAKFEVNNPQIQHKAVNELIRVIHQLSPESSLRKRKRSRC
Take B2: the “effect on in vitro neurogenesis (Dcx-expressing cells relative to control)” value in series [1] is reported as “not significant”.
